Assay results taken from publication PMC8163063 (Chemical Science, 2020).

Key:
Bacillus subtilis = format: cell-based
Escherichia coli = format: cell-based

tachyplesin I (KWCFRVCYRGICYRRCR; not fully specified; Tachyplesin-1; UniProt P14213 24-40, looked up) [TPI-1]
MIC against B. subtilis (Bacillus subtilis): 4 µg/mL
MIC against E.coli (Escherichia coli): 4 µg/mL
